Laboratory results: patent US20250215029A1 (Recludix Pharma, Inc., priority 2022, published 2025)
Read-outs that look alike come from different tables or passages of the source.

What was measured:
pY705-STAT3 in PBMC = biological target: T1, pY705-STAT3 in PBMC (Homo sapiens, UniProt P40763); test: MSD-pSTAT-PBMC Assay (pSTAT3, IL-6 stimulated); type: cell-based; conditions: compound 3 hrs, then 10 ng/mL IL-6 for 10 min, Table 115
T1 construct: Cryopreserved Peripheral Blood Mononuclear Cells (PBMC) are from AllCells; host or cells: cryopreserved PBMC
T1 sequence (P40763 whole entry): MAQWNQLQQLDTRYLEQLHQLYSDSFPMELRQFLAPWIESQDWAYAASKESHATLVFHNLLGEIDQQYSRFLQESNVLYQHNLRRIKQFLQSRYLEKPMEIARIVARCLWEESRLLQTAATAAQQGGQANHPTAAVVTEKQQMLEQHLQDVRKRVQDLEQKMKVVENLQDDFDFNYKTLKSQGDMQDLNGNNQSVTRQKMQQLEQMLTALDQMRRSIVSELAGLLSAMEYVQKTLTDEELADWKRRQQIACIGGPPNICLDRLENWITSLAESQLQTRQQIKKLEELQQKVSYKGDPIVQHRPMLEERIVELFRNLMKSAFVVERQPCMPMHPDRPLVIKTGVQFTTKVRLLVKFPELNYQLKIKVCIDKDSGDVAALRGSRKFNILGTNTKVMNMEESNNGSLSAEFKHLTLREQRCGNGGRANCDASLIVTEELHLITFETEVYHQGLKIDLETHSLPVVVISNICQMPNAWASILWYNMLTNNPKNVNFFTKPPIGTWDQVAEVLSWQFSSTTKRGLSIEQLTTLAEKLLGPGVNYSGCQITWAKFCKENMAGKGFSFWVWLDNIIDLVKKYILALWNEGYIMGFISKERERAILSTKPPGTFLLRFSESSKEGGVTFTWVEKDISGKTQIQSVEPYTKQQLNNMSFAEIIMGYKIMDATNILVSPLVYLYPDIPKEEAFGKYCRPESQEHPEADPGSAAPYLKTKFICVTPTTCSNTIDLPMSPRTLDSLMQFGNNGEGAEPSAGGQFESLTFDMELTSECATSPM
Procedure, shortened: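 Human PBMCs were pretreated with compound for 3 h, then stimulated with 10 ng/mL IL-6 for 10 min. Lysate pY705-STAT3 was measured by MSD sandwich immunoassay (anti-STAT3 capture) and corrected for unstimulated background. Signal was normalized to DMSO, and IC50 came from variable-slope regression.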

pY641-STAT6 in PBMC = biological target: T2, pY641-STAT6 in PBMC (Homo sapiens, UniProt P42226); test: MSD-pSTAT-PBMC Assay (pSTAT6, IL-4 stimulated); type: cell-based; conditions: compound 3 hrs, then 1 ng/mL IL-4 for 10 min, Table 115
T2 construct: Cryopreserved Peripheral Blood Mononuclear Cells (PBMC) are from AllCells; host or cells: cryopreserved PBMC
T2 sequence (P42226 1-847): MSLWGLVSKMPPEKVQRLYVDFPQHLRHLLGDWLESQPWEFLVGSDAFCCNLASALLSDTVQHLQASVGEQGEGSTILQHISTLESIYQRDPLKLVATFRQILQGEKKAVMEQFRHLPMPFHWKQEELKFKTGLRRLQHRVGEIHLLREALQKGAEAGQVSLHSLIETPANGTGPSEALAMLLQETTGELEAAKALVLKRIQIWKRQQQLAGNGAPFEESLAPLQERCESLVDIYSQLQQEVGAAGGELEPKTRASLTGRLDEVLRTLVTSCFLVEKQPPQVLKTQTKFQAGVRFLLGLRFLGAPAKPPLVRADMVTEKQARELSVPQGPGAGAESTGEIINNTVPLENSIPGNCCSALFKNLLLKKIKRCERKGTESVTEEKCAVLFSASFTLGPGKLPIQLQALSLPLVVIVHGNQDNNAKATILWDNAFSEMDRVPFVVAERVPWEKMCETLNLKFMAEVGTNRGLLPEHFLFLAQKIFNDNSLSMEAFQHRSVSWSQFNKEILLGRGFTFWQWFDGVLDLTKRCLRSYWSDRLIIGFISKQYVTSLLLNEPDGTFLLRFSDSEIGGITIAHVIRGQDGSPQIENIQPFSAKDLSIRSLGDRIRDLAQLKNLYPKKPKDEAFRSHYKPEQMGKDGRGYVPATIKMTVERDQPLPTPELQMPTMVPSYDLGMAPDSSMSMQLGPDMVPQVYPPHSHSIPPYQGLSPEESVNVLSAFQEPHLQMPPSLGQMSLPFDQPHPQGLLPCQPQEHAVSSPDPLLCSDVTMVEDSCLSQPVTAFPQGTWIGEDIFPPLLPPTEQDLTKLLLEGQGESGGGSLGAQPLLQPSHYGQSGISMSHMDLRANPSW
Procedure, shortened: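 Cells are preincubated with compound for 3 hrs, then stimulated for 10 min, IL-4 at 1 ng/mL driving STAT6 phosphorylation and IL-6 at 10 ng/mL driving STAT3. Phospho-STAT in lysates is quantified by MSD immunoassay, and IC50 is fitted after subtracting unstimulated wells.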

Question: `CCCOC(=O)[C@H](C)NP(=O)(Oc1ccccc1)C(F)c1ccc2sc(C(=O)N[C@H]3CCCC[C@H]4CC[C@@H](C(=O)N5CCC(c6cccnc6)C5)N4C3=O)cc2c1` (stereo partly drawn) [Compound 320, propyl ((fluoro(2-(((3S,6S,10aS)-5-oxo-3-(3-(pyridin-3-yl)pyrrolidine-1-carbonyl)decahydropyrrolo[1,2-a]azocin-6-yl)carbamoyl)benzo [b]thiophen-5-yl)methyl)(phenoxy)phosphoryl)-L-alaninate] was tested. Which IC50 (pY705-STAT3 in PBMC; PBMC, read-out: STAT3) did it give?
Answer: < 0.1 µM

Question: And the IC50 (pY641-STAT6 in PBMC; STAT6, PBMC)?
Answer: 0.1 to 1 µM

Question: Which IC50 (pY705-STAT3 in PBMC; PBMC, read-out: STAT3) does the source give for `CC(C)(C)C(=O)SCCOP(=O)(OCCSC(=O)C(C)(C)C)C(F)(F)c1ccc2sc(C(=O)N[C@H]3CCC[C@H]4CC[C@@H](C(=O)N5CC(c6cnccc6F)C5)N4C3=O)cc2c1` [Compound 324, S,S′-((((difluoro(2-(((3S,6S,9aS)-3-(3-(4-fluoropyridin-3-yl)azetidine-1-carbonyl)-5-oxooctahydro-1H-pyrrolo[1,2-a]azepin-6-yl)carbamoyl)benzo [b]thiophen-5-yl)methyl)phosphoryl)bis(oxy))bis(ethane-2,1-diyl)) bis(2,2-dimethyl-propanethioate)] here?
Answer: < 0.1 µM

Question: And the IC50 (pY641-STAT6 in PBMC; PBMC, read-out: STAT6)?
Answer: > 3 µM

Question: Which results are given for `CCCOC(=O)[C@H](C)NP(=O)(Oc1ccccc1)[C@@H](F)c1ccc2sc(C(=O)N[C@H]3CCCC[C@H]4CC[C@@H](C(=O)N5C[C@@H](c6ccccc6)[C@H](C#N)C56CC6)N4C3=O)cc2c1` (stereo partly drawn) [Compound 380, propyl (((R)-(2-(((3S,6S,10aS)-3-((6R,7S)-7-cyano-6-phenyl-4-azaspiro[2.4]heptane-4-carbonyl)-5-oxodecahydropyrrolo [1,2-a]azocin-6-yl)carbamoyl)benzo [b]thiophen-5-yl)fluoromethyl) (phenoxy)phosphoryl)-L-alaninate]?
Answer: IC50 (pY705-STAT3 in PBMC; PBMC, read-out: STAT3): > 3 µM; IC50 (pY641-STAT6 in PBMC; STAT6, PBMC): < 0.1 µM

Question: With `CCCOC(=O)[C@H](C)NP(=O)(Oc1ccccc1)[C@@H](F)c1ccc2sc(C(=O)N[C@H]3CCCC[C@H]4CC[C@@H](C(=O)N5C[C@H](c6ccccc6)[C@@H](C#N)C56CC6)N4C3=O)cc2c1` (stereo partly drawn) [Compound 381, propyl (((R)-(2-(((3S,6S,10aS)-3-((6S,7R)-7-cyano-6-phenyl-4-azaspiro[2.4]heptane-4-carbonyl)-5-oxodecahydropyrrolo [1,2-a]azocin-6-yl)carbamoyl)benzo [b]thiophen-5-yl)fluoromethyl) (phenoxy)phosphoryl)-L-alaninate] as the compound, how does the IC50 (pY705-STAT3 in PBMC; PBMC, read-out: STAT3) read?
Answer: > 3 µM

Question: And the IC50 (pY641-STAT6 in PBMC; STAT6, PBMC)?
Answer: < 0.1 µM

Question: How did the IC50 (pY705-STAT3 in PBMC; STAT3, PBMC) turn out when `CCCOC(=O)[C@H](C)NP(=O)(Oc1ccccc1)[C@@H](F)c1ccc2sc(C(=O)N[C@H]3CCC[C@H]4CC[C@@H](C(=O)N5C[C@@H](c6ccccc6)[C@H](C#N)C56CC6)N4C3=O)cc2c1` (stereo partly drawn) [Compound 382, propyl (((R)-(2-(((3S,6S,9aS)-3-((6R,7S)-7-cyano-6-phenyl-4-azaspiro[2.4]heptane-4-carbonyl)-5-oxooctahydro-1H-pyrrolo[1,2-a]azepin-6-yl)carbamoyl)benzo [b]thiophen-5-yl)fluoromethyl) (phenoxy)phosphoryl)-L-alaninate] was run?
Answer: > 3 µM

Question: And the IC50 (pY641-STAT6 in PBMC; STAT6, PBMC)?
Answer: < 0.1 µM

Question: Which IC50 (pY705-STAT3 in PBMC; STAT3, PBMC) does the source give for `CCCOC(=O)[C@H](C)NP(=O)(Oc1ccccc1)[C@H](F)c1ccc2sc(C(=O)N[C@H]3CCC[C@H]4CC[C@@H](C(=O)N5C[C@H](c6ccccc6)[C@@H](C#N)C56CC6)N4C3=O)cc2c1` (stereo partly drawn) [Compound 388, propyl (((S)-(2-(((3S,6S,9aS)-3-((6S,7R)-7-cyano-6-phenyl-4-azaspiro[2.4]heptane-4-carbonyl)-5-oxooctahydro-1H-pyrrolo[1,2-a]azepin-6-yl)carbamoyl)benzo [b]thiophen-5-yl)fluoromethyl) (phenoxy)phosphoryl)-L-alaninate] here?
Answer: > 3 µM

Question: What about the IC50 (pY641-STAT6 in PBMC; STAT6, PBMC) of the same compound?
Answer: < 0.1 µM

Question: With `CCOC(=O)[C@H](C)NP(=O)(Cc1ccc2ccc(C(=O)N[C@H]3CCCC[C@H]4CC[C@@H](C(=O)N5CC(c6ccccc6)CC56CC6)N4C3=O)cc2c1)Oc1ccccc1` (stereo partly drawn) [Compound 396, ethyl (((7-(((3S,6S,10aS)-5-oxo-3-(6-phenyl-4-azaspiro[2.4]heptane-4-carbonyl)decahydropyrrolo[1,2-a]azocin-6-yl)carbamoyl)naphthalen-2-yl)methyl)(phenoxy)phosphoryl)-L-alaninate] as the compound, how does the IC50 (pY705-STAT3 in PBMC; PBMC, read-out: STAT3) read?
Answer: > 3 µM

Question: What about the IC50 (pY641-STAT6 in PBMC; STAT6, PBMC) of the same compound?
Answer: 1 to 3 µM

Question: For `C[C@H](NP(=O)(Cc1ccc2ccc(C(=O)N[C@H]3CCCC[C@H]4CC[C@@H](C(=O)N5CC(c6ccccc6)CC56CC6)N4C3=O)cc2c1)Oc1ccccc1)C(=O)OCc1ccccc1` (stereo partly drawn) [Compound 397, benzyl (((7-(((3S,6S,10aS)-5-oxo-3-(6-phenyl-4-azaspiro[2.4]heptane-4-carbonyl)decahydropyrrolo[1,2-a]azocin-6-yl)carbamoyl)naphthalen-2-yl)methyl)(phenoxy)phosphoryl)-L-alaninate], which IC50 (pY705-STAT3 in PBMC; PBMC, read-out: STAT3) is on record?
Answer: > 3 µM

Question: And the IC50 (pY641-STAT6 in PBMC; STAT6, PBMC)?
Answer: > 3 µM

Question: With `CCCOC(=O)[C@H](C)NP(=O)(Cc1ccc2ccc(C(=O)N[C@H]3CCCC[C@H]4CC[C@@H](C(=O)N5C[C@H](c6cc[nH]c(=O)c6)CC56CC6)N4C3=O)cc2c1)Oc1ccccc1` (stereo partly drawn) [Compound 402, propyl (((7-(((3S,6S,10aS)-5-oxo-3-((S)-6-(2-oxo-1,2-dihydropyridin-4-yl)-4-azaspiro[2.4]heptane-4-carbonyl)decahydropyrrolo[1,2-a]azocin-6-yl)carbamoyl)naphthalen-2-yl)methyl)(phenoxy)phosphoryl)-L-alaninate] as the compound, how does the IC50 (pY705-STAT3 in PBMC; PBMC, read-out: STAT3) read?
Answer: > 3 µM

Question: And the IC50 (pY641-STAT6 in PBMC; STAT6, PBMC)?
Answer: 1 to 3 µM

Question: How did the IC50 (pY705-STAT3 in PBMC; PBMC, read-out: STAT3) turn out when `CCCOC(=O)[C@H](C)NP(=O)(Oc1ccccc1)C(F)(F)c1ccc2ccc(C(=O)N[C@H]3CCCC[C@H]4CC[C@@H](C(=O)N5CC(c6ccccc6)CC56CC6)N4C3=O)cc2c1` (stereo partly drawn) [Compound 403, propyl ((difluoro(7-(((3S,6S,10aS)-5-oxo-3-(6-phenyl-4-azaspiro[2.4]heptane-4-carbonyl)decahydropyrrolo[1,2-a]azocin-6-yl)carbamoyl)naphthalen-2-yl)methyl)(phenoxy)phosphoryl)-L-alaninate] was run?
Answer: > 3 µM

Question: And the IC50 (pY641-STAT6 in PBMC; STAT6, PBMC)?
Answer: 0.1 to 1 µM

Question: With `CCC(CC)COC(=O)[C@H](C)NP(=O)(Cc1ccc2ccc(C(=O)N[C@H]3CCCC[C@H]4CC[C@@H](C(=O)N5CC(c6ccccc6)CC56CC6)N4C3=O)cc2c1)Oc1ccccc1` (stereo partly drawn) [Compound 404, 2-ethylbutyl (((7-(((3S,6S,10aS)-5-oxo-3-(6-phenyl-4-azaspiro[2.4]heptane-4-carbonyl)decahydropyrrolo[1,2-a]azocin-6-yl)carbamoyl)naphthalen-2-yl)methyl)(phenoxy)phosphoryl)-L-alaninate] as the compound, how does the IC50 (pY705-STAT3 in PBMC; PBMC, read-out: STAT3) read?
Answer: > 3 µM

Question: And the IC50 (pY641-STAT6 in PBMC; STAT6, PBMC)?
Answer: 1 to 3 µM

Question: What does the source list for `CCCCOC(=O)[C@H](C)NP(=O)(Cc1ccc2ccc(C(=O)N[C@H]3CCCC[C@H]4CC[C@@H](C(=O)N5CC(c6ccccc6)CC56CC6)N4C3=O)cc2c1)Oc1ccccc1` (stereo partly drawn) [Compound 405, butyl (((7-(((3S,6S,10aS)-5-oxo-3-(6-phenyl-4-azaspiro[2.4]heptane-4-carbonyl)decahydropyrrolo[1,2-a]azocin-6-yl)carbamoyl)naphthalen-2-yl)methyl)(phenoxy)phosphoryl)-L-alaninate]?
Answer: IC50 (pY705-STAT3 in PBMC; PBMC, read-out: STAT3): > 3 µM; IC50 (pY641-STAT6 in PBMC; STAT6, PBMC): 1 to 3 µM

Question: For `CCCCOC(=O)[C@H](C)NP(=O)(Oc1cccc2ccccc12)C(F)(F)c1ccc2ccc(C(=O)N[C@H]3CCCC[C@H]4CC[C@@H](C(=O)N5CC(c6ccccc6)CC56CC6)N4C3=O)cc2c1` (stereo partly drawn) [Compound 406, butyl ((difluoro(7-(((3S,6S,10aS)-5-oxo-3-(6-phenyl-4-azaspiro[2.4]heptane-4-carbonyl)decahydropyrrolo[1,2-a]azocin-6-yl)carbamoyl)naphthalen-2-yl)methyl) (naphthalen-1-yloxy)phosphoryl)-L-alaninate], which IC50 (pY705-STAT3 in PBMC; PBMC, read-out: STAT3) is on record?
Answer: > 3 µM

Question: And the IC50 (pY641-STAT6 in PBMC; STAT6, PBMC)?
Answer: 1 to 3 µM
